Earlier results as cited in paper PMC11584006, “Structural characterization and AlphaFold modeling of human T cell receptor recognition of NRAS cancer neoantigens” (Science Advances, 2024).

Test system: T cells transduced with these TCRs
Conditions: for peptide concentration at which TCR-transduced T cells can be activated: APCs pulsed with peptide, wild-type tested at >1000-fold higher concentrations
Text: KRAS is the most highly mutated RAS isoform across cancers, accounting for ~85% of all RAS mutations with especially high frequencies in pancreatic and colorectal cancers ([12], [13]). However, NRAS mutations dominate in melanomas, with mutations at position 61 appearing in ~20% of patients ([14]). The two most frequent mutations are Q61K and Q61R ([15]). Mutant NRAS melanomas have more aggressive clinical features and poorer outcomes compared to nonmutant NRAS melanomas ([16]–[18]). […] This HLA-A*01:01–restricted TCR recognizes the NRAS^Q61K and NRAS^Q61R neoepitopes using gene segments TRDV1 and TRAJ27-1 for the α chain and TRBV27 and TRBJ2-5 for the β chain. […] Recombinant TCR and pMHC proteins were expressed by in vitro folding from bacterial inclusion bodies. Biotinylated wild-type NRAS–HLA-A1, NRAS ...

| Sequence | peptide concentration at which TCR-transduced T cells can be activated | concentration of peptide required for recognition (peptide titrations), relative to NRAS^Q61K (peptide titrations, HLA-A*01:01) |
| --- | --- | --- |
| ILDTAGKEEY [NRAS^Q61K, NRAS^Q61K peptide ([…]), residues 55 to 64] | subnanomolar |  |
| ILDTAGQEEY [wild-type NRAS peptide, reference compound] | do not respond |  |
| ILDTAGREEY [NRAS^Q61R, NRAS^Q61R peptide ([…])] | subnanomolar | a higher concentration |
